In patent publication US3932374A, “Bleomycinic acid and process for preparing thereof” (Zaidan Hojin Biseibutsu Kagaku Kenkyu Kai, priority 1971, dated 1976):
Read-outs that look alike come from different tables or passages of the source.

Assays:
Mycobacterium 607 [1] = conditions: cup test; standard value; cited from earlier work
Mycobacterium 607 [2] = assay: cup test, antimicrobial activity to Mycobacterium 607; type: cell-based
From the text: The endpoint of the hydrolysis reaction can be determined by a reaction in antimicrobial activity of the bleomycin substrate as measured by conventional cup tests using Mycobacterium 607, or by a change in the Rf value during thin layer chromatography.

ICR-JCL male mice = conditions: 10 mice, 10 mg./kg. i.v., 10 days
From the text: The mice were bred for 5 weeks after the final administration and were then dissected. The right and left lungs were observed by microscopic examination.

HeLa (S3 bb cell line) = conditions: third day
From the text: wherein the inhibitory effect = [formula] Co: relative number of cell on the first day t3 : relative number of cell on the third day after the addition of a bleomycin (3 mcg/ml in final)
C3 : relative number of cell in negative control on the third day

solubility in solvents = type: physicochemical

For `Cc1c(N)nc([C@H](CC(N)=O)NC[C@H](N)C(N)=O)nc1C(=O)N[C@H](C(=O)N[C@H](C)[C@@H](O)[C@H](C)C(=O)N[C@H](C(=O)NCCc1nc(-c2nc(C(=O)NCCC[S+](C)C)cs2)cs1)[C@@H](C)O)[C@@H](O[C@@H]1O[C@@H](CO)[C@@H](O)[C@H](O)[C@@H]1O[C@H]1O[C@H](CO)[C@@H](O)[C@H](OC(N)=O)[C@@H]1O)c1c[nH]cn1.[Br-]` [bleomycin A2, 3-dimethylsulfopropylamino-bleomycin], the “antimicrobial activity, standard” value (Mycobacterium 607 [1]) is listed as 1000 μ/mg.
For `Cc1c(N)nc(C(CC(N)=O)NCC(N)C(N)=O)nc1C(=O)NC(C(=O)NC(C)C(O)C(C)C(=O)NC(C(=O)NCCc1nc(-c2nc(C(=O)O)cs2)cs1)C(C)O)C(OC1OC(CO)C(O)C(O)C1OC1OC(CO)C(O)C(OC(N)=O)C1O)c1cnc[nH]1` (centres unmarked) [bleomycinic acid], the “antimicrobial activity to Mycobacterium 607” value (Mycobacterium 607 [2]) was 159 μ/mg.
In the case of `Cc1c(N)nc([C@H](CC(N)=O)NC[C@H](N)C(N)=O)nc1C(=O)N[C@H](C(=O)N[C@H](C)[C@@H](O)[C@H](C)C(=O)N[C@H](C(=O)NCCc1nc(-c2nc(C(=O)NCCCCN=C(N)N)cs2)cs1)[C@@H](C)O)[C@@H](O[C@@H]1O[C@@H](CO)[C@@H](O)[C@H](O)[C@@H]1O[C@H]1O[C@H](CO)[C@@H](O)[C@H](OC(N)=O)[C@@H]1O)c1cnc[nH]1` [bleomycin B2, 4-guanidinobutylamino-bleomycin], the “Total, mice with degree of fibrosis ++” value (ICR-JCL male mice; Lung L) is reported as 1, the “Total, mice with degree of fibrosis -” value (ICR-JCL male mice; Lung L) is reported as 5 and the “Total, mice with degree of fibrosis ±” value (ICR-JCL male mice; Lung L) is reported as 1. For the same compound, the “Total, mice with degree of fibrosis ± (third Total column)” value (ICR-JCL male mice; Lung L) was 3, the “Total, mice with degree of fibrosis ++” value (ICR-JCL male mice; Lung R) was 0 and the “Total, mice with degree of fibrosis -” value (ICR-JCL male mice; Lung R) was 4. For the same compound, the “Total, mice with degree of fibrosis ±” value (ICR-JCL male mice; Lung R) was 3, the “Total, mice with degree of fibrosis ± (third Total column)” value (ICR-JCL male mice; Lung R) was 3 and the Inhibitory effect (HeLa (S3 bb cell line); 1.5 mcg/ml.) was 33. For the same compound, the Inhibitory effect (HeLa (S3 bb cell line); 3 mcg/ml.) was 64, the Inhibitory effect (cell culture of Yoshida; 0.625 mcg/ml) was 8.6 and the Inhibitory effect (cell culture of Yoshida; 1.25 mcg/ml) was 34.0. The Inhibitory effect (cell culture of Yoshida; 2.5 mcg/ml) was 56.0, the Inhibitory effect (cell culture of Yoshida; 5 mcg/ml) was 74.9 and the “antimicrobial activity to Mycobacterium 607” value (Mycobacterium 607 [2]) was 3094 μ/mg. The “antimicrobial activity to Mycobacterium 607” value (Mycobacterium 607 [2]; listed as bleomycin) was 3015 μ/mg.
For hydrochloride of bleomycinic acid, the “solubility in ethanol, ethyl acetate, acetone and ether” value (solubility in solvents; ethanol, ethyl acetate, acetone, ether) was “insoluble”, the “solubility in methanol, acetic acid, dimethylsulfoxide” value (solubility in solvents; methanol, acetic acid, dimethylsulfoxide) was “sparingly soluble” and the solubility in water (solubility in solvents; water) was “soluble”.
For benzylamino-bleomycin, the Inhibitory effect (HeLa (S3 bb cell line); 1.5 mcg/ml.) was 38, the Inhibitory effect (HeLa (S3 bb cell line); 3 mcg/ml.) was 73 and the Inhibitory effect (HeLa (S3 bb cell line); 6 mcg/ml.) was 92. The Inhibitory effect (cell culture of Yoshida; 0.625 mcg/ml) was 11.1, the Inhibitory effect (cell culture of Yoshida; 1.25 mcg/ml) was 28.2 and the Inhibitory effect (cell culture of Yoshida; 2.5 mcg/ml) was 55.4. For the same compound, the Inhibitory effect (cell culture of Yoshida; 5 mcg/ml) was 83.5 and the “antimicrobial activity to Mycobacterium 607” value (Mycobacterium 607 [2]) was 3250 μ/mg.
